Data set [1] is described as follows: Single-dose oral pharmacokinetics in rats. It counts as in vivo, Sprague Dawley rats. The settings on record: Sprague Dawley, rat; single oral dose 100 mg/kg, male rats, whole blood. The protocol:
Single doses of each compound were administered as oral suspensions by gavage in 0.5% carboxy methylcellulose at 100 mg/kg. Whole blood levels were collected for at least 72 hours after dose administration. Bioanalyses were performed with liquid chromatography-tandem mass spectrometry […].
Single-dose pharmacokinetics (PK) in male Sprague Dawley (SD) rats (n=4) were assessed for each compound, and the maximum or peak whole blood concentration and area under the curve are shown in Table 5.

For data set [2], the target named is T1, Hb (Homo sapiens, UniProt P69905). Nature of the data set: Drug partitioning studies, fixed and unfixed Hb adducts in non-sickling AA blood. It counts as cell-based. To be noted: 2 mM; for Fixed Adducts (%) / Unfixed Adduct (%): 6 biological replicates; for Partitioning Ratio (%): fixed relative to unfixed adducts. Also noted: Hemoglobin modification, studies using non-sickling AA blood; from tissue; host or cells: non-sickling (AA) human blood, red blood cells. The procedure:
RBC partitioning studies were conducted both for SS RBCs following sickling studies above, or as separate independent studies with non-sickle blood. Briefly, aliquots of blood samples, which had been incubated with test molecules, were lysed either in deionized water (un-fixed), or in water containing 50 mM sodium borohydride (fixed). Samples were subjected to cation exchange HPLC analyses, as described above. Modified […] (Hb adducts) was determined as a proportion of total Hb in each sample, and partitioning ratio was determined as the relative fraction of Hb modification of fixed samples compared to corresponding non-fixed samples. The partitioning ratio is the relative fraction of Hb that was modified intracellularly by molecules that permeated the RBC membrane, as compared to unfixed adducts which reflect Hb binding without RBC membrane permeation.
Target sequence in this assay (P69905 2-142 limits assumed): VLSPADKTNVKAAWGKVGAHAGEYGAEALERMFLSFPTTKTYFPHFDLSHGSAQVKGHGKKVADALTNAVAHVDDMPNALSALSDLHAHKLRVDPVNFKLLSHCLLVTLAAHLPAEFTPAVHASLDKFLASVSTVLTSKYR
Target sequence in this assay (P68871 2-147 partner limits assumed): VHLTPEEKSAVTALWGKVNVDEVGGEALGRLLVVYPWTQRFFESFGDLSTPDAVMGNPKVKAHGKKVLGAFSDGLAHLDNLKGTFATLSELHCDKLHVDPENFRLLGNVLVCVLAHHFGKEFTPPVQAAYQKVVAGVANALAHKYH

The target in data set [3] is T1, Hb. Nature of the data set: Hb modification (drug-adduct formation) in SS blood suspensions by cation-exchange HPLC. It counts as binding. The arrangement: Blood suspensions from subjects with homozygous SCD; from tissue; host or cells: blood suspensions (20% hematocrit) from donors with homozygous SCD; lysates of the treated red cells. To be noted: 2 mM, 4 biological replicates. The procedure: All compounds (Comp 1-13) and comparator molecules (VZHE-039, PP-14, INN-310, and Voxelotor) were evaluated following established procedures. Blood samples from individual donors with homozygous SCD (obtained with informed consent) were diluted using Hemox buffer solution with the addition of glucose (10 mM) and BSA (0.2%) to adjust hematocrit of the blood suspensions to 20%, which standardizes the procedure to normalize the ratio of RBCs to drug, for assay consistency and reproducibility. Briefly, blood suspensions were incubated under room air in the presence of various concentrations of test compounds (0-2 mM) at 37° C. for 1 hour in 96-well round bottom plates. Subsequently, the suspensions were incubated with a hypoxic gas mixture (2.5% Oxygen gas/balance Nitrogen gas) at 37° C. for up to 2 hours prior to fixation with 2% glutaraldehyde solution without exposure to air. The fixated blood aliquots were evaluated by microscopic morphological analysis (image analysis on Image J software) to identify the proportion of sickled and non-sickled RBCs, and sickle inhibition calculated based on the % change from negative control (DMSO).
The residual samples were then washed in phosphate-buffered saline, and hemolyzed in hypotonic lysis buffer, with or without sodium borohydride (50 mM). Aliquots obtained from the lysates with or without sodium borohydride (to reduce Schiff base adducts) were also assessed for level of Hb modification (drug-adduct formation) by cation-exchange HPLC (Hitachi D-7000 Series, Hitachi Instruments, Inc., San Jose, CA) with a weak cation-exchange column (Poly CAT A: 50 mm×4.6 mm, Poly LC, Inc., Columbia, MD). Hemoglobin isotype peaks are eluted with a linear gradient of phase B from 0% to 80% at A410 nm (Mobile Phase A: 40 mM Bis-Tris, 2 mM KCN, pH 6.9; Phase B: 40 mM Bis-Tris, 2 mM KCN, 0.2 M sodium chloride, pH 6.55). Clarified lysate from normal human adult […] (Hb A), as well as commercial standards containing approximately equal amounts of Hb F, A, S and C (Helena Laboratories, Beaumont, TX), were utilized as reference isotypes. Reduced samples were used to assess “fixed adduct” formation (dependent on RBC membrane permeability), whereas non-reduced samples assessed drug-adduct formation independent of drug permeability.
Target sequence in this assay (P69905 2-142): as the sequence (P69905 2-142 limits assumed) above
Target sequence in this assay (P68871 with tags, fused parts or gaps E7V partner): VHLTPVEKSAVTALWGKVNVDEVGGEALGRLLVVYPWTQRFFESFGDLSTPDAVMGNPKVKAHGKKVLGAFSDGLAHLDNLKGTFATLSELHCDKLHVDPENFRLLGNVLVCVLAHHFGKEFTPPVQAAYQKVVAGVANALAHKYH

Data set [4] concerns the target T1, Hb. Nature of the data set: Oxygen equilibrium curve (OEC) studies with normal whole blood. It counts as cell-based. The arrangement: Hemoglobin modification, studies using non-sickling AA blood; from tissue; host or cells: non-sickling (AA) human blood, red blood cells. To be noted: normal whole blood, 0.5, 1, 2 mM. The procedure: Oxygen equilibrium curve (OEC) studies to determine the effect of the compounds on Hb affinity for oxygen were conducted following standard procedure. Whole blood (30% hematocrit) was incubated in the absence or presence of compounds (0.5 mM, 1.0 mM and 2.0 mM) solubilized in DMSO. […] After equilibration, the sample was removed via syringe and aspirated into an ABL 700 series table top automated blood gas analyzer (Radiometer America, Inc., Westlake, OH) to determine total hemoglobin (tHb), hematocrit (Hct), pH, pCO2, partial pressure of oxygen (pO2), and the Hb-O2 saturation (sO2) values. The measured values of pO2 and sO2 at each oxygen saturation level were then subjected to nonlinear regression analysis using the software Scientist (Micromath, Salt Lake City UT) with the following equation: […]
Aromatic aldehydes are known to prevent hypoxia-induced Hb S polymerization by increasing the Hb affinity for oxygen. We therefore tested the PP compounds in a dose-dependent manner (0.5, 1, 2 mM) for their effect on Hb oxygen binding property. […] These findings confirmed that the potent in vitro activity previously seen in TD7 was at least conserved in the novel PP compounds.
Target sequence in this assay (P69905 2-142 limits assumed): as the sequence (P69905 2-142 limits assumed) above
Target sequence in this assay (P68871 2-147 partner limits assumed): as the sequence (P68871 2-147 partner limits assumed) above

A further data set concerns the target T2, intracellular Hb (Mus musculus, UniProt P01942).
T2 construct: from tissue; host or cells: blood (red cell lysates) of dosed C57BL/6 mice
The data set is described as follows: In vivo modification of intracellular Hb in wild-type mice. Also noted: species or system C57BL/6 mice. To be noted: IP 150 mg/kg, 30% PEG300, 6 h. The procedure: We tested in vivo pharmacologic (pharmacodynamics) effects of select PP compounds in C57BL/6 mice. The animals were treated with a single intraperitoneal (IP) (150 mg/kg body weight) dose of PP6, PP10, PP14, and TD7, which were formulated with 30% PEG300. Blood samples were obtained prior to treatment (0) and 1, 3 and 6 h post-treatment, via submandibular bleeding, and subjected to hemolysis using standard methods. Clarified lysates, free of cell debris and red blood cell ghosts were analyzed by cation-exchange HPLC to determine the levels of drug-modified hemoglobin (adducts); and to conduct oxygen equilibrium studies to determine degrees of shift in p50 values using methodologies described earlier for in vitro studies on human samples. In a subsequent follow-up experiment, a new excipient obtained from Catalent Pharma Solutions was also used to formulate PP14 and used for a single intraperitoneal (IP) and oral (150 mg/kg body weight) dose. Blood samples were obtained prior to treatment (0) and 1, 3 or 5 h post-treatment, via submandibular bleeding, and used to determine the levels of drug-modified hemoglobin (adducts); and to conduct oxygen equilibrium studies to determine degrees of shift in p50 values as described above.

The test system of another data set is sickle red blood cells. Nature of the data set: Antisickling study with human sickle blood under 2.5% oxygen. It counts as cell-based. The settings on record: 0.5, 1 and 2 mM, sickle RBCs. The protocol:
Blood suspensions from subjects with homozygous SCD (resuspended in Hemox™ buffer to a final hematocrit 20%) were incubated under air in the absence or presence of the compounds (0.5 mM, 1 mM and 2 mM) at 37° C. for 1 h to ensure that binding had attained equilibrium. The suspensions were then incubated under hypoxic conditions (2.5% oxygen/97.5% nitrogen) at 37° C. for 1 h. Aliquot samples were fixed with 2% glutaraldehyde solution without exposure to air, and then subjected to microscopic morphological analysis of bright field images (at 40× magnification) of single layer cells on an Olympus BX40 microscope fitted with an Infinity Lite B camera (Olympus), and the coupled Image Capture software. The residual samples were washed in phosphate-buffer saline, and hemolyzed in hypotonic lysis buffer for subsequent Hb-modification and oxygen equilibrium analyses.
The studies described above were conducted using normal whole blood. Next, we investigated whether the improvement in Hb oxygen affinity and the compounds sustained activity also translated to similar effects in SS blood from SCD patients. […] At 1 mM, PP8 and PP9 inhibited nearly 100% of sickling, while PP2, PP6, PP14 inhibited sickling by more than 70%. […] It is clear that the modifications of the present compounds has led to significant improvement in antisickling activity.

Values joined by “and” are separate entries in the source; they are usually repeats but may differ in a detail not shown here. Equal entries are not always repeated.

T2 sequence (P01942 2-142 limits assumed): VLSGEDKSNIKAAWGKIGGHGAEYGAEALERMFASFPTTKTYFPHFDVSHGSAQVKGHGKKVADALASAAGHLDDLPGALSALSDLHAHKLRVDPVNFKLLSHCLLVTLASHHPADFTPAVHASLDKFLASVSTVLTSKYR
T2 sequence (P02088 2-147 partner limits assumed): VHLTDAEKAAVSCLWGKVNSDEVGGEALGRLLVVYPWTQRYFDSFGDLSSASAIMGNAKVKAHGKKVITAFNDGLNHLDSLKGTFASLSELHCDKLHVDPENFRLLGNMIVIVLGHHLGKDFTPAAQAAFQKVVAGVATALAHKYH

By AUC(0-inf) is commonly meant total exposure, with the tail of the curve extrapolated. By Cmax is commonly meant the maximum level reached in the sampled fluid or tissue. As a reminder, the half-life is the time in which the quantity being followed falls by half. For the molecule `O=Cc1c(O)cccc1OCc1cncnc1` [Comp 10, 2-hydroxy-6-(pyrimidin-5-ylmethoxy)benzaldehyde], in data set [1], the area under the curve AUC(0-inf) is 693000 ng·h/mL and 3010 µM·h; the Cmax was 36200 ng/mL and 157 µM; the half-life is 4.7 h. For the same molecule, on Hb [2], the “Fixed Adducts (%)” value worked out at 94.8 ± 2.8%, the “Unfixed Adduct (%)” value was determined as 96.3 ± 3.0% and the “Partitioning Ratio (%)” value is given as 98.5 ± 2.7%. For the same molecule, the “Hb Modification (%)” value on Hb [3] is 100.0 ± 0.0%.

`O=Cc1c(O)cccc1OCc1cncc(F)c1` [Comp 4, 2-((5-fluoropyridin-3-yl)methoxy)-6-hydroxybenzaldehyde]: in data set [1], the area under the curve AUC(0-inf) was 831000 ng·h/mL and 3360 µM·h; the Cmax is 59800 ng/mL and 242 µM; the half-life is 5.9 h. Besides, at Hb [2], the “Fixed Adducts (%)” value is recorded as 85.9 ± 7.1%, the “Unfixed Adduct (%)” value was found to be 88.8 ± 6.2% and the “Partitioning Ratio (%)” value stood at 96.9 ± 5.73%. Further, the “Hb Modification (%)” value at Hb [3] is given as 92.9 ± 9.8%.

Turning to `O=Cc1c(O)cccc1OCc1ncccn1` [Comp 11, 2-hydroxy-6-(pyrimidin-2-ylmethoxy)benzaldehyde], on Hb [2], the “Fixed Adducts (%)” value stood at 88.2 ± 2.1%, the “Unfixed Adduct (%)” value is reported as 87.7 ± 4.3% and the “Partitioning Ratio (%)” value stood at 100.7 ± 3.0%. For the same molecule, the “Hb Modification (%)” value on Hb [3] is 98.1 ± 3.2%.

`COC(=O)c1ccnc(COc2cccc(O)c2C=O)c1` [PP7, Methyl 2-((2-formyl-3-hydroxyphenoxy)methyl)isonicotinate]: the “effect on Hb oxygen binding property (OEC)” value (“effect” for short) on Hb [4] is listed as “most significant activities”.

With `O=Cc1c(O)cccc1OCc1cccnc1F` [Comp 6, 2-((2-fluoropyridin-3-yl)methoxy)-6-hydroxybenzaldehyde], in data set [1], the total exposure AUC(0-inf) is 180000 ng·h/mL and 728 µM·h; the peak concentration (Cmax) is 12100 ng/mL and 49 µM; the half-life was 8.2 h. At Hb [2], the “Fixed Adducts (%)” value worked out at 67.3 ± 12.1%, the “Unfixed Adduct (%)” value was 67.1 ± 10.3% and the “Partitioning Ratio (%)” value was 100.0 ± 2.8%. In addition, the “Hb Modification (%)” value on Hb [3] was 73.8 ± 15.4%.

In the case of `COC(=O)c1cccc(COc2cccc(O)c2C=O)n1` [PP10, Methyl 6-((2-formyl-3-hydroxyphenoxy)methyl)picolinate], on intracellular Hb, the “modified Hb” value is reported as 9.6±1.9%.

Consider `COC(=O)c1ccc(COc2ccc(OC)cc2C=O)nc1` [PP1, Methyl 6-((2-formyl-4-methoxyphenoxy)methyl)nicotinate], for which the “effect” value at Hb [4] is on record as “minimal effect”.

On to `COC(=O)c1cncc(COc2ccc(OC)cc2C=O)c1` [PP12, Methyl 5-((2-formyl-4-methoxyphenoxy)methyl)nicotinate], for which, on Hb [4], the “effect” value is reported as “most significant activities”.

Take `COC(=O)c1ccnc(COc2ccc(OC)cc2C=O)c1` [PP4]: the “effect” value at Hb [4] is given as “minimal effect”.

As for `O=Cc1c(O)cccc1OCc1ncccc1Cl` [Comp 8, 2-((3-chloropyridin-2-yl)methoxy)-6-hydroxybenzaldehyde], in data set [1], the AUC(0-inf) is 269000 ng·h/mL and 1020 µM·h; the Cmax is 20000 ng/mL and 76 µM; the half-life is 9.5 h. Besides, at Hb [2], the “Fixed Adducts (%)” value came out at 85.6 ± 2.5%, the “Unfixed Adduct (%)” value stood at 84.8 ± 7.5% and the “Partitioning Ratio (%)” value came out at 101.3 ± 6.3%. In addition, at Hb [3], the “Hb Modification (%)” value is reported as 100.0 ± 0.0%.

Regarding `COc1cc(C=O)ccc1O` [vanillin, reference compound], the “sickling inhibition (in words)” value in the data set with sickle red blood cells is “minimal sickling inhibition”. In addition, the “effect” value on Hb [4] is “very weak functional effect”.

For `O=Cc1c(O)cccc1OCc1cccnc1Cl` [Comp 7, 2-((2-chloropyridin-3-yl)methoxy)-6-hydroxybenzaldehyde], on Hb [2], the “Fixed Adducts (%)” value stood at 59.6 ± 5.7%, the “Unfixed Adduct (%)” value is 60.2 ± 5.7% and the “Partitioning Ratio (%)” value came to 99.0 ± 3.1%. Besides, the “Hb Modification (%)” value on Hb [3] is 73.91 ± 9.8%.

Regarding `O=Cc1c(O)cccc1OCc1ccncc1` [Comp 3, 2-hydroxy-6-(pyridin-4-ylmethoxy)benzaldehyde], on Hb [2], the “Fixed Adducts (%)” value came to 60.1 ± 3.0%, the “Unfixed Adduct (%)” value amounted to 60.0 ± 3.3% and the “Partitioning Ratio (%)” value is reported as 100.1 ± 0.9%. Besides, at Hb [3], the “Hb Modification (%)” value came out at 74.4 ± 10.6%.
